Several values for one entry are separate records, joined by “and”; a condition that tells them apart may be missing. Identical values can stand only once. Toxic doses and inconclusive results are not listed. How the source made its calls: active means survival T/C of 150% or more; inactive means T/C below 125% in these data.
Test system: P388 leukemia ip, CD2F1 mice, survival T/C
Assay: NCI In Vivo Anticancer Drug Screen. Data for tumor model P388 Leukemia (intraperitoneal) in CD2F1 (CDF1) mice
Conditions: endpoint: median survival time, higher = longer survival
Method in brief: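 Mice carrying the transplanted tumor received test compound or vehicle. Survival was recorded in each group, and the value is the treated-group measurement divided by that of the vehicle-treated control group.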

[1] = dose: 100.0 mg/kg/injection, schedule: Q04DX003 (ip), vehicle: saline with Tween-80
[2] = dose: 200.0 mg/kg/injection, schedule: Q04DX003 (ip), vehicle: saline with Tween-80
[3] = dose: 60.0 mg/kg/injection, schedule: Q01DX005 (ip), vehicle: saline with Tween-80
[4] = dose: 120.0 mg/kg/injection, schedule: Q01DX005 (ip), vehicle: saline with Tween-80
[5] = dose: 240.0 mg/kg/injection, schedule: Q01DX005 (ip), vehicle: saline with Tween-80

Measured: T/C

C=C1C(C2(C)C=CC(=O)OC3(C)COC(=O)CC32)C(OC=O)C(OC(=O)C(O)C(C)CC)C2(C)C(c3ccoc3)CC(OC(C)=O)C12O (stereo not given)
inactive: dose: 5.0 mg/kg/injection, schedule: Q01DX005 (ip), vehicle: Klucel (hydroxypropylcellulose) (HPC) 96 % of control | dose: 10.0 mg/kg/injection, schedule: Q01DX005 (ip), vehicle: Klucel (hydroxypropylcellulose) (HPC) 98 % of control and 96 % of control | dose: 20.0 mg/kg/injection, schedule: Q01DX005 (ip), vehicle: Klucel (hydroxypropylcellulose) (HPC) 91 % of control and 95 % of control | dose: 40.0 mg/kg/injection, schedule: Q01DX005 (ip), vehicle: Klucel (hydroxypropylcellulose) (HPC) 95 % of control and 96 % of control | dose: 80.0 mg/kg/injection, schedule: Q01DX005 (ip), vehicle: Klucel (hydroxypropylcellulose) (HPC) 102 % of control | dose: 160.0 mg/kg/injection, schedule: Q01DX005 (ip), vehicle: Klucel (hydroxypropylcellulose) (HPC) 87 % of control

CSc1nccc(=O)n1-c1ccccc1Cl
inactive: [1] 109 % of control | [2] 114 % of control

Cc1c(C(=O)CC2OC(=O)C(Cl)=C2Cl)c2ccccc2n1C(=O)Nc1ccc(Cl)cc1 (stereo not given)
inactive: [3] 93 % of control | [4] 99 % of control | [5] 94 % of control

O=C(c1ccccc1)N1C2C=C(c3ccccc3)CC1CC2 (stereo not given)
inactive: dose: 100.0 mg/kg/injection, schedule: Q04DX003 (ip), vehicle: Klucel (hydroxypropylcellulose) (HPC) 111 % of control | dose: 200.0 mg/kg/injection, schedule: Q04DX003 (ip), vehicle: Klucel (hydroxypropylcellulose) (HPC) 97 % of control | dose: 400.0 mg/kg/injection, schedule: Q04DX003 (ip), vehicle: Klucel (hydroxypropylcellulose) (HPC) 94 % of control

Oc1ccc(O)c(-n2nc3ccccc3n2)c1
inactive: [3] 104 % of control | [4] 103 % of control | [5] 100 % of control

CCCC12C=C(OC)C(=O)C=C1OC(c1cc(OC)c(OC)c(OC)c1)C2C (stereo not given)
inactive: dose: 8.75 mg/kg/injection, schedule: Q01DX005 (ip), vehicle: Klucel (hydroxypropylcellulose) (HPC) 101 % of control | dose: 17.5 mg/kg/injection, schedule: Q01DX005 (ip), vehicle: Klucel (hydroxypropylcellulose) (HPC) 96 % of control | dose: 35.0 mg/kg/injection, schedule: Q01DX005 (ip), vehicle: Klucel (hydroxypropylcellulose) (HPC) 100 % of control

FC(F)(F)C1=C(C(F)(F)F)SP(Cl)(Cl)(c2ccccc2)S1
inactive: dose: 12.5 mg/kg/injection, schedule: Q04DX003 (ip), vehicle: saline with Tween-80 105 % of control | dose: 25.0 mg/kg/injection, schedule: Q04DX003 (ip), vehicle: saline with Tween-80 105 % of control | dose: 50.0 mg/kg/injection, schedule: Q04DX003 (ip), vehicle: saline with Tween-80 105 % of control | dose: 75.0 mg/kg/injection, schedule: Q04DX003 (ip), vehicle: saline with Tween-80 101 % of control

Cc1ccc(C(=O)c2cc3c([nH]c4ccccc43)c(C)c2C(=O)O)cc1
inactive: dose: 50.0 mg/kg/injection, schedule: Q01DX005 (ip), vehicle: Klucel (hydroxypropylcellulose) (HPC) 103 % of control | dose: 100.0 mg/kg/injection, schedule: Q01DX005 (ip), vehicle: Klucel (hydroxypropylcellulose) (HPC) 92 % of control | dose: 200.0 mg/kg/injection, schedule: Q01DX005 (ip), vehicle: Klucel (hydroxypropylcellulose) (HPC) 100 % of control

CCOC(=O)C(=CC(CC)(C(=O)OCC)C(=O)OCC)C(=O)OCC
inactive: [1] 110 % of control | [2] 110 % of control | dose: 300.0 mg/kg/injection, schedule: Q04DX003 (ip), vehicle: saline 109 % of control | dose: 450.0 mg/kg/injection, schedule: Q04DX003 (ip), vehicle: saline 100 % of control | dose: 600.0 mg/kg/injection, schedule: Q04DX003 (ip), vehicle: saline 109 % of control

CSC(SC)c1cc(-c2c(Cl)cccc2Cl)no1
inactive: [3] 102 % of control | [4] 103 % of control | [5] 103 % of control

CNC(=O)OCc1ccc(NCCN(C)C)c2c(=O)c3cc(OS(=O)(=O)c4ccc(C)cc4)ccc3oc12
inactive: dose: 25.0 mg/kg/injection, schedule: Q01DX005 (ip), vehicle: water 90 % of control | dose: 50.0 mg/kg/injection, schedule: Q01DX005 (ip), vehicle: water 100 % of control | dose: 100.0 mg/kg/injection, schedule: Q01DX005 (ip), vehicle: water 102 % of control | dose: 200.0 mg/kg/injection, schedule: Q01DX005 (ip), vehicle: water 106 % of control

CN(C)c1ccc(N=C2C=CC(=[N+](C)C)C=C2)cc1
inactive: dose: 3.13 mg/kg/injection, schedule: Q01DX009 (ip), vehicle: Klucel (hydroxypropylcellulose) (HPC) 90 % of control | dose: 6.25 mg/kg/injection, schedule: Q01DX009 (ip), vehicle: Klucel (hydroxypropylcellulose) (HPC) 93 % of control | dose: 12.5 mg/kg/injection, schedule: Q01DX009 (ip), vehicle: Klucel (hydroxypropylcellulose) (HPC) 101 % of control | dose: 25.0 mg/kg/injection, schedule: Q01DX009 (ip), vehicle: Klucel (hydroxypropylcellulose) (HPC) 114 % of control

C=CCNC(=O)/C(C)=C(/C)c1ccccc1
inactive: dose: 100.0 mg/kg/injection, schedule: Q01DX001 (ip), vehicle: Klucel (hydroxypropylcellulose) (HPC) 100 % of control | dose: 200.0 mg/kg/injection, schedule: Q01DX001 (ip), vehicle: Klucel (hydroxypropylcellulose) (HPC) 104 % of control | dose: 400.0 mg/kg/injection, schedule: Q01DX001 (ip), vehicle: Klucel (hydroxypropylcellulose) (HPC) 99 % of control

Nc1[nH]c(=S)ncc1-c1ccc(Cl)c(Cl)c1
inactive: [3] 94 % of control | [4] 93 % of control | [5] 88 % of control

O=C(NC1CCCCC1)OCc1c(COC(=O)NC2CCCCC2)c(-c2ccc(Cl)c(Cl)c2)n2c1CCCC2
inactive: dose: 12.5 mg/kg/injection, schedule: Q01DX009 (ip), vehicle: distilled water + Tween-80 96 % of control | dose: 25.0 mg/kg/injection, schedule: Q01DX009 (ip), vehicle: distilled water + Tween-80 89 % of control and 91 % of control | dose: 50.0 mg/kg/injection, schedule: Q01DX009 (ip), vehicle: distilled water + Tween-80 87 % of control and 96 % of control | dose: 100.0 mg/kg/injection, schedule: Q01DX009 (ip), vehicle: distilled water + Tween-80 99 % of control and 100 % of control | dose: 200.0 mg/kg/injection, schedule: Q01DX009 (ip), vehicle: distilled water + Tween-80 99 % of control and 116 % of control | dose: 400.0 mg/kg/injection, schedule: Q01DX009 (ip), vehicle: distilled water + Tween-80 116 % of control

COC(=O)C1=C(C(=O)OC)C2C3CC4C(C13)C42
inactive: dose: 9.4 mg/kg/injection, schedule: Q01DX009 (none), vehicle: saline 105 % of control | dose: 18.75 mg/kg/injection, schedule: Q01DX009 (none), vehicle: saline 106 % of control | dose: 37.5 mg/kg/injection, schedule: Q01DX009 (none), vehicle: saline 105 % of control | dose: 75.0 mg/kg/injection, schedule: Q01DX009 (none), vehicle: saline 99 % of control

Cc1cc(C)c(-c2cc(C(O)C3OC4OC(C)(C)OC4C3O)on2)c(C)c1 (stereo not given)
inactive: dose: 50.0 mg/kg/injection, schedule: Q01DX005 (ip), vehicle: saline with Tween-80 108 % of control | dose: 100.0 mg/kg/injection, schedule: Q01DX005 (ip), vehicle: saline with Tween-80 90 % of control

Cc1c(O)c(=O)ccn1CCO
inactive: dose: 50.0 mg/kg/injection, schedule: Q01DX005 (ip), vehicle: saline 102 % of control and 104 % of control | dose: 100.0 mg/kg/injection, schedule: Q01DX005 (ip), vehicle: saline 100 % of control and 106 % of control | dose: 200.0 mg/kg/injection, schedule: Q01DX005 (ip), vehicle: saline 117 % of control and 124 % of control

O=C(O)/C(Cl)=C(Cl)\C=N\Nc1ccccc1
inactive: dose: 25.0 mg/kg/injection, schedule: Q04DX002 (ip), vehicle: saline with Tween-80 100 % of control | dose: 50.0 mg/kg/injection, schedule: Q04DX002 (ip), vehicle: saline with Tween-80 102 % of control | dose: 100.0 mg/kg/injection, schedule: Q04DX002 (ip), vehicle: saline with Tween-80 100 % of control

C=C1OC(=O)C(N)=C1C(C)=O
inactive: [3] 99 % of control | [4] 97 % of control | [5] 95 % of control

Source: PubChem BioAssay AID330 (DTP/NCI, 2004)
